Experiments:
IKZF1 Ikaros [1] = biological target: T1, IKZF1 Ikaros (Homo sapiens, UniProt Q13422+Q96SW2); assay: Human Regulatory T Cell Degradation Assay (Ikaros); format: cell-based; conditions: human regulatory T cells, 20 h; concentration reducing protein level by 50% compared to DMSO alone
Method: Cryopreserved human regulatory T cells were thawed in RPMI+10% FBS+20 ng/mL IL-2. After being spun at 1200 rpm for 5 mins, the cells were resuspended in RPMI+10% FBS+20 ng/ml and rested at 37° C. with 5% CO2 for 3 hours. The cells were then plated at 40,000 cells/well in 40 μL RPMI+10% FBS+20 ng/mL human IL-2 in a 384 well cell culture plate prior to using acoustic dispensing technology (ECHO 555) for adding compounds of interest. Cell cultures were incubated for 20 hours at 37° C. and 5% CO2. In order to facilitate analysis, cell cultures were spun down at 1200 rpm for 5 minutes and the supernatant was discarded using an EL406 plate washer. After washing three times with […] PBS, cell pellets were resuspended in 50 μL of […] viability staining solution (Life Technologies, Cat #L34975) and incubated for 30 minutes on ice protected from light. Cells were washed three times with 70 μL PBS+0.5% BSA using an EL406 plate washer. After shaking the plate to dislodge the cell pellet, cells were resuspended in 50 μL of Fixation Buffer (eBioScience FoxP3 buffer set 00-5523-00) for 60 minutes at room temperature. After centrifuging and discarding the supernatant, cells were permeabilized with 50 μL of permeabilization buffer (eBioScience FoxP3 buffer set 00-5523-00) for 10 minutes at room temperature. Following permeabilization, cells were spun down and the supernatant was replaced with 30 μL fluorescently labelled antibodies against the intracellular targets Helios (Helios-APC [BioLegend, Cat #137222, 1:50])]), Aiolos, and Ikaros 1× Permeabilization buffer and staining reactions were incubated for 1 hour at room temperature; protected from light. Subsequently, […] Permeabilization buffer was added prior to centrifuging the cells and discarding the supernatant. Stained cells were resuspended in 30 μL of flow cytometry staining buffer (PBS+0.5% BSA) and analyzed using an Intellicyt Ique Plus flow cytometer.
(§1) Table B-1 lists the maximum observed degradation of the IKZF1 protein and IKZF2 protein as measured in the Human Regulatory T Cell Degradation assay. The results in Table B-1 were rounded to two digits. In the Human Regulatory T Cell Degradation assay, a value of 100% indicated no detectable protein remaining or complete degradation of the protein; and a value of 0% indicated no detectable degradation of the protein by the test compound.

IKZF1 Ikaros [2] = biological target: T1, IKZF1 Ikaros; assay: Jurkat Cellular Degradation Assay (Ikaros); format: cell-based; set-up: endogenous in cells; host or cells: Jurkat cells; conditions: Jurkat cells, 72 h; concentration reducing protein level by 50% compared to DMSO alone
Method: (§2) Jurkat cells were plated at 80,000 cells/well in 40 μL RPMI+10% FBS in a 384-well cell culture plate prior to using acoustic dispensing technology for adding a compound of interest. Cell cultures were incubated for 72 h at 37° C. and 5% CO2. In order to facilitate analysis, cell cultures were spun down at 200 rpm for 5 min and the supernatant was discarded. After shaking the plate to dislodge the cell pellet, cells were resuspended in 50 μL of Fixation Buffer (eBioscience FoxP3 buffer set 00-5523-00) for 60 min at room temperature. After centrifuging and discarding the supernatant, cells were permeabilized with 50 μL of Permeabilization buffer (eBioscience FoxP3 buffer set 00-5523-00) for 10 min at room temperature. Following permeabilization, cells were spun down and the supernatant was replaced with 20 μL fluorescently labelled antibodies against Helios, Ikaros and Aiolos or corresponding Isotype controls in 1× Permeabilization buffer (Ikaros-Alexa488 [Biolegend, Cat #368408, 1:50], Helios-PE [CST, Cat #29360, 1:50], Aiolos-Alexa647 [Biolegend, Cat #371106 Biolegend, 1:25]) and staining reactions were incubated for 1 h at room temperature while protected from light. Subsequently, 30 μL of 1× Permeabilization buffer was added prior to centrifuging the cells and discarding the supernatant. Stained cells were resuspended in 25 μL of flow cytometry staining buffer [PBS+0.2% bovine serum albumin (BSA)] and analyzed using an Intellicyt Ique Plus flow cytometer.
(§3) Table A-1 lists the maximum observed degradation of the IKZF1 protein, IKZF2 protein, and IKZF3 protein as measured in the Jurkat Cellular Degradation assay. The results in Table A-I were rounded to two digits. In the Jurkat Cellular Degradation assay, a value of 100% indicated no detectable protein remaining or complete degradation of the protein; and a value of 0% indicated no detectable degradation of the protein by the test compound.

IKZF3 Aiolos [3] = biological target: T2, IKZF3 Aiolos (Homo sapiens, UniProt Q96SW2+Q9UKT9); assay: Jurkat Cellular Degradation Assay (Aiolos); format: cell-based; set-up: endogenous in cells; host or cells: Jurkat cells; conditions: Jurkat cells, 72 h; concentration reducing protein level by 50% compared to DMSO alone
T2 sequence (Q9UKT9 whole entry): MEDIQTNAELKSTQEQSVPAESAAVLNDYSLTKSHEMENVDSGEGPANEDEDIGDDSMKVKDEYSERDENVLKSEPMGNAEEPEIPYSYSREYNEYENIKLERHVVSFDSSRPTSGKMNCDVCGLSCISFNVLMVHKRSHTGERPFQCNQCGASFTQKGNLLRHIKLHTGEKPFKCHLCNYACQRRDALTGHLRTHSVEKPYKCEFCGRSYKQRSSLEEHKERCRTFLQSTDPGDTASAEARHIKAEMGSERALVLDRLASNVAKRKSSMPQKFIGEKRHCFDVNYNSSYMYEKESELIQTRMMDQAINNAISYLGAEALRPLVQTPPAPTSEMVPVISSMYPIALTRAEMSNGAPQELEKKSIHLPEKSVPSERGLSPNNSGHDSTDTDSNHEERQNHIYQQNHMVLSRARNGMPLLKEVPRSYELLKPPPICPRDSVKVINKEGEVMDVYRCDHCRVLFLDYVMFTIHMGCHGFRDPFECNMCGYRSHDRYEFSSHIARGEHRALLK
T2 sequence (Q96SW2 whole entry): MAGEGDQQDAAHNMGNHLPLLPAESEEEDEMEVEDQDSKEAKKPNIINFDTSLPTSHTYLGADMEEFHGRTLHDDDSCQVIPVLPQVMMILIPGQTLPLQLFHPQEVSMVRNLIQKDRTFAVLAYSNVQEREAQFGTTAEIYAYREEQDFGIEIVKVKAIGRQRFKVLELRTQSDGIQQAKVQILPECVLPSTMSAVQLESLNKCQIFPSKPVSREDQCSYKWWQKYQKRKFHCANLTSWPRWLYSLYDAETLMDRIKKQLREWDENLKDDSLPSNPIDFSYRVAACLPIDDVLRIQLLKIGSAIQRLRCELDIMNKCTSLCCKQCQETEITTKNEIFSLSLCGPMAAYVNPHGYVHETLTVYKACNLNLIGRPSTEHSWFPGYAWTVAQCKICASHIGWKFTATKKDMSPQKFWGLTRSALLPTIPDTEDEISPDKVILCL
T2 sequence (Q16531 whole entry partner): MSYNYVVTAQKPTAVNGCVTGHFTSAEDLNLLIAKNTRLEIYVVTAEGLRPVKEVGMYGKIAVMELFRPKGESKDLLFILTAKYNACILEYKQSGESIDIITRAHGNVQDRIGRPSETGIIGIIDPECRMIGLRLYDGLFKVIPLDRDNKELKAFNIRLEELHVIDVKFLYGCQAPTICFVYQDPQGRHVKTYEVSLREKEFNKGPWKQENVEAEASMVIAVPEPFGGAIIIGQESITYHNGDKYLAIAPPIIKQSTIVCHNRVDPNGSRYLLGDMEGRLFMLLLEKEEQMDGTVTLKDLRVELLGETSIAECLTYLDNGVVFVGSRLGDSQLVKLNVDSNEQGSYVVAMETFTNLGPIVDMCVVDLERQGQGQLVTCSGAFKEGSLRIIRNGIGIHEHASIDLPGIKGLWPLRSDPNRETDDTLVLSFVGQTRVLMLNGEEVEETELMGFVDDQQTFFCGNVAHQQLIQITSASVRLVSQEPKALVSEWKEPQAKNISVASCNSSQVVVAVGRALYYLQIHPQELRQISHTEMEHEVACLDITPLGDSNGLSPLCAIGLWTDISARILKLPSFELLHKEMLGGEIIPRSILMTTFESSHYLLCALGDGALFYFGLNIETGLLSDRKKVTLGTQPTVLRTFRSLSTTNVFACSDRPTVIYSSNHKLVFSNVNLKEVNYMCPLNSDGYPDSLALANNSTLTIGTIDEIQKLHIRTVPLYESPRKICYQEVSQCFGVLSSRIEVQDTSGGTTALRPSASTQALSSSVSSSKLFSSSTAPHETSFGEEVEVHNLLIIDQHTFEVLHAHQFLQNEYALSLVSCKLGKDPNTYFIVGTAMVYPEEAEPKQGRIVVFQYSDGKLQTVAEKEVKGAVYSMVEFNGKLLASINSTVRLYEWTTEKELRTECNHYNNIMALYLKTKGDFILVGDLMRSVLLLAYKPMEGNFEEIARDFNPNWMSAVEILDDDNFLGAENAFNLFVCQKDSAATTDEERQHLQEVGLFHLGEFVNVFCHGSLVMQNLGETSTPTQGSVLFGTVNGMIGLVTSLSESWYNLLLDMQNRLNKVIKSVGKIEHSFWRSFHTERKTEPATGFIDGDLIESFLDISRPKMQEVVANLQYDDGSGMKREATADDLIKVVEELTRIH
Method: as §2, §3

IKZF1 Ikaros [4] = biological target: T1, IKZF1 Ikaros; assay: Human CD8+ T Cell Reprogramming (Degradation) Assay (Ikaros); format: cell-based; set-up: Cryopreserved healthy donor human peripheral blood mononuclear cells (PBMC); endogenous in cells; host or cells: CD8+ T cells within healthy donor human PBMC; conditions: CD8+ T cells, human PBMC, 24 h; concentration reducing protein level by 50% compared to DMSO alone
Method: (§4) Cryopreserved healthy donor human peripheral blood mononuclear cells (PBMC) from healthy donors were thawed and seeded at 500,000 cells/well of 96-well round bottom plates in RPMI 1640 media (Gibco) supplemented with 10% FBS, Pen/Strep (Gibco), MEM-NEAA (Gibco), and sodium pyruvate (Gibco). Cells were treated with titrated doses of compound for 24 hours at 37° C., 5% CO2 before analyzing by flow cytometry.
(§5) For flow cytometry staining, cells were washed twice with flow cytometry staining buffer (Thermo Fisher) and incubated in Human Tru-stain Fc block (Biolegend) for 10 minutes before adding eFluor780 viability dye (Thermo Fisher) and surface marker antibody cocktail containing LD-eFluor780, CD3-BUV-395, CD4-BUV805, CD8-FITC, and CD25-BV605 for 30 minutes at 4° C. Cells were then fixed and permeabilized by incubation with permeabilization buffer (eBioscience FoxP3 buffer set 00-5523-00) for 30 minutes at 4° C. as per the kit manufacturer's instructions. Cells were washed twice with the Perm/Wash buffer supplied in the kit as per the manufacturer's instructions and incubated overnight at 4° C. with an intracellular antibody cocktail comprised of antibodies specific for the transcription factors (i.e., Foxp3-BV421, HELIOS-PE-Cy7, EOS-PE, IKAROS-PECF594, AIOLOS-AF647). Cells were washed twice with Perm/Wash buffer and resuspended in flow cytometry staining buffer (Thermo Fisher) prior to acquisition. Sample acquisition and analysis was performed using a BD LSRFortessa (BD Biosciences) flow cytometer. Single-stain controls for each fluorochrome were prepared using UltraComp eBead Compensation Beads (Thermo Fisher). Data were analyzed using FlowJo version 10 and GraphPad Prism Software.
as §1, with “D-1” for “B-1”, “IKZF3” for “IKZF2”, “CD8^+” for “Regulatory”, “Reprogramming” for “Degradation”

IKZF3 Aiolos [5] = biological target: T2, IKZF3 Aiolos; assay: Human CD8+ T Cell Reprogramming (Degradation) Assay (Aiolos); format: cell-based; set-up: Cryopreserved healthy donor human peripheral blood mononuclear cells (PBMC); endogenous in cells; host or cells: CD8+ T cells within healthy donor human PBMC; conditions: CD8+ T cells, human PBMC, 24 h; concentration reducing protein level by 50% compared to DMSO alone
Method: as §4, §5
as §1, with “D-1” for “B-1”, “IKZF3” for “IKZF2”, “CD8^+” for “Regulatory”, “Reprogramming” for “Degradation”

solid tumors = conditions: sometimes; patients with solid tumors / advanced malignancies; cited from earlier work

T1 sequence (Q13422 whole entry): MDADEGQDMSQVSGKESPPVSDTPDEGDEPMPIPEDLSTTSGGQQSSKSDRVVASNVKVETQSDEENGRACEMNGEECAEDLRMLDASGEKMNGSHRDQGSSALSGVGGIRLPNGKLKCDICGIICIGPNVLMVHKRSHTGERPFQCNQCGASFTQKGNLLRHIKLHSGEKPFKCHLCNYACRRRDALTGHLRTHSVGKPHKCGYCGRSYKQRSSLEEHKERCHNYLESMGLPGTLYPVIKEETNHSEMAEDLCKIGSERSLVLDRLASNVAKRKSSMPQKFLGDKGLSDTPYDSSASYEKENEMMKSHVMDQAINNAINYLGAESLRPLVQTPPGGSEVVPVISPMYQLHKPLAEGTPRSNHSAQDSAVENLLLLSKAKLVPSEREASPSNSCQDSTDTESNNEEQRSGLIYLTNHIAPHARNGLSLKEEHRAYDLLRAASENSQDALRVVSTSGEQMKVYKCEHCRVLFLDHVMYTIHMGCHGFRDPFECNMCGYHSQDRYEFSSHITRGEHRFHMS
T1 sequence (Q96SW2 whole entry): as the sequence (Q96SW2 whole entry) above
T1 sequence (Q16531 whole entry partner): as the sequence (Q16531 whole entry partner) above

| SMILES | DC50 (IKZF1 Ikaros [1]) [µM] | DC50 (IKZF1 Ikaros [2]) [µM] | DC50 (IKZF3 Aiolos [3]) [µM] | DC50 (IKZF1 Ikaros [4]) [µM] | DC50 (IKZF3 Aiolos [5]) [µM] | clinical response in patients with solid tumors (solid tumors) |
| --- | --- | --- | --- | --- | --- | --- |
| Nc1nc(-c2ccc3c(c2)CN(C2CCC(=O)NC2=O)C3=O)ccc1CN1CC2(CCC2)C1 (stereo not shown) [Comparative Compound B, 3-(5-(5-((2-azaspiro[3.3]heptan-2-yl)methyl)-6-aminopyridin-2-yl)-1-oxoisoindolin-2-yl) piperidine-2,6-dione, reference compound] | > 10 | > 10 | > 10 | > 1 | > 1 |  |
| Nc1cccc2c1C(=O)N(C1CCC(=O)NC1=O)C2=O (stereo not shown) [pomalidomide] |  |  |  |  |  | modest responses of stable disease |
| O=C1CCC(N2Cc3c(ccc(-c4cc(CN5CC(c6ccccc6)C5)ccn4)c3F)C2=O)C(=O)N1 (stereo not shown) [Comparative Compound A, 3-(4-fluoro-1-oxo-5-(4-((3-phenylazetidin-1-yl)methyl)pyridin-2-yl)isoindolin-2-yl) piperidine-2,6-dione, reference compound] | > 10 | > 10 | > 10 | > 1 | > 1 |  |
| Nc1cccc2c1CN(C1CCC(=O)NC1=O)C2=O (stereo not shown) [lenalidomide] |  |  |  |  |  | modest responses of stable disease |
| Cc1nc2cccc(N)c2c(=O)n1C1CCC(=O)NC1=O (stereo not shown) [avadomide] |  |  |  |  |  | modest responses of stable disease |

Reference: patent US20260335299A1, “SUBSTITUTED OXOISOINDOLINYL PIPERIDINE-2,6-DIONE COMPOUND AS ANTICANCER AGENT” (BRISTOL-MYERS SQUIBB COMPANY, priority 2023, published 2026)
